For data set [1], the system named is central nervous system. As to the kind of experiment: Locomotory activity of mice (registered with instrument "Animex"). As to conditions: for ED200: Mus musculus, dose causing two-fold potentiation of locomotory activity, read-out: ED200 (locomotion). Format: in vivo, white male mice. Here is the method:
(§1) Psychostimulating activity of the compounds according to the present invention has been tested in experiments with mice and rats.
(§2) The experiments are performed with white male mice with a weight of 18-20 g and with white rat males with a weight of 120 to 140 g with the account of parameters characterising the influence of the compounds according to the present invention on the central nervous system as well as toxicity. Following this objective, there have been studied:
(1) effect of the compounds on the locomotory activity of the animals (locomotory activity is registered using the instrument "Animex");
(§3) To quantitatively evaluate the central stimulant activity of the compounds in the tests on mice the values of ED200 (locomotion) are determined, i.e. doses in which the compounds cause a two-fold potentiation of locomotory activity of the animals; in the tests performed with rats there are determined values of ED50 (stereotypy), i.e. doses in which the compounds, one hour after their administration, cause, in 50% of the test rats, stereotypic behavior reactions (ED50 doses are calculated by the Litchfield and Wilkoxsons method).
(§4) The compounds according to the present invention are sparingly soluble in water. They were administered to the animals in the form of a suspension prepared with the use of a 1% solution of carboxymethylcellulose with the addition of Tween-80® as an emulsifying agent. Since molecular weights of the test compounds differ from each other, their doses are calculated in mcM/kg.
(§5) In a special series of experiments there has been made a quantitative comparison of the central stimulant effect of the compounds according to the present invention as determined by tests of locomotory activity with mice and stereotypy with rats.

In data set [2] the test system is central nervous system. Nature of the data set: Stereotypic behavior reactions in rats. Format: in vivo, white rat males. As to conditions: Rattus norvegicus, 1 h, dose causing stereotypic behavior reactions in 50% of rats one hour after administration, Litchfield and Wilkoxson method, read-out: ED50 (stereotypy). Here is the method: as §1, §2
(2) capability of the compounds of inducing sterotypic behavior reactions;
as §3, §4, §5

In data set [3] the test system is central nervous system. As to conditions: prior art compound; cited from earlier work.
Another data set is described as follows: Solubility. Format: physicochemical.
In another data set the test system is mice. As to conditions: statement on known psychostimulant compounds; cited from earlier work.

Take `CC(Cc1ccccc1)[n+]1cc([N-]C(=O)Nc2ccc(Cl)cc2)on1` (racemic) [Example 4, dl-N-para-chlorophenyl carbamoyl-3-(α-methyl-β-phenylethyl) sydnonimine]: the ED200 with central nervous system [1] stood at 18.2 µmol/kg. In addition, the ED50 in the data set with central nervous system [2] was found to be 20 µmol/kg.

Consider `Cc1cccc(NC(=O)[N-]c2c[n+](C(C)Cc3ccccc3)no2)c1` (racemic) [X is NH--C6 H4 --CH3 --meta], for which, in the data set with central nervous system [1], the ED200 was determined as 32.3 µmol/kg. Besides, the ED50 with central nervous system [2] is 39.9 µmol/kg.

Consider `CC(Cc1ccccc1)[n+]1cc([N-]C(=O)Nc2ccccc2)on1` (racemic) [dl-N-phenylcarbamoyl-3-(α-methyl-β-phenylethyl) sydnonimine, reference compound], for which the ED200 in the data set on central nervous system [1] was 72.6 µmol/kg. Moreover, the 50% effective dose (ED50) in the data set on central nervous system [2] amounted to 107 µmol/kg. The “psychostimulant activity (known compound)” value in the data set on central nervous system [3] was “possesses a psychostimulant activity”.

As for `C[C@H](Cc1ccccc1)[n+]1cc([N-]C(=O)Nc2ccccc2)on1` [Example 3, l-3-(α-methyl-β-phenylethyl)-N-phenylcarbamoylsydnonimine], the “duration for which maximum locomotory activity is maintained” value with central nervous system [1] (dose of 40 mcM/kg) was 1 to 1.5 h. Besides, the solubility in acetone entry in “Solubility” (acetone) is “soluble”. Moreover, the solubility in chloroform entry in the data set “Solubility” (chloroform) was “soluble”. Also, the solubility in fats result in the data set “Solubility” (fats) was “soluble”. Besides, the solubility in water entry in “Solubility” (water) is “substantially insoluble in water”.

On to `CC(N)Cc1ccccc1` (centres unmarked) [amphetamine], for which the “phenomenon of "group toxicity" (known psychostimulant compounds)” value in the data set with mice is given as “characteristic”.

In the case of `C[C@H](N)Cc1ccccc1` [dextramphetamine], in the data set with mice, the “phenomenon of "group toxicity" (known psychostimulant compounds)” value is reported as “characteristic”.

Values taken from US4245100A, “Sydnonimine N-acyl derivatives and method for preparing same” (Vsesojuzny nauchno-issledovatelsky khimikofarmatsevtichesky …, priority 1977, dated 1981).
